Among the data in ChEMBL document CHEMBL1144437, “Identification of nonpeptidic small-molecule inhibitors of interleukin-2” (Bioorg Med Chem Lett, 2005) are IC50 values, retold here.

A short description of this assay: Inhibitory concentration against interleukin-2 binding. Also noted: species or system Homo sapiens.
For `CCN(CC1CC1)C(=O)[C@H](CCNC(=O)N1CCC(c2cc(-c3cccc(Cl)c3Cl)nn2C)CC1)N=C(N)N`, the IC50 – broadly, the concentration that gives 50% inhibition – was 60 µM.

`Cn1nc(-c2cccc(Cl)c2Cl)cc1C1CCN(S(=O)(=O)NCCCN=C(N)N)CC1` registered an IC50 of 23 µM.

As to `COC(=O)[C@H](Cc1ccc(C#Cc2ccccc2)cc1)NC(=O)C[C@H]1CCCN(C(=N)N)C1`, the IC50 was 3 µM.

The molecule `CC(C)N(CCCNS(=O)(=O)N1CCC(c2cc(-c3cccc(Cl)c3Cl)nn2C)CC1)C(=N)N` came in with an IC50 of 48 µM.

`CN(CCCNS(=O)(=O)N1CCC(c2cc(-c3cccc(Cl)c3Cl)nn2C)CC1)C(=N)N` gave an IC50 of 14 µM.

Turning to `Cn1nc(-c2cccc(Cl)c2Cl)cc1C1CCN(S(=O)(=O)NCCN=C(N)N)CC1`, the IC50 was more than 100 µM.

`Cn1nc(-c2cccc(Cl)c2Cl)cc1C1CCN(C(=O)NCCCN=C(N)N)CC1`: the IC50 was found to be 29 µM.

`C[C@H](CCNC(=O)N1CCC(c2cc(-c3cccc(Cl)c3Cl)nn2C)CC1)N=C(N)N`: the IC50 worked out at 57 µM.

As to `CC(C)[C@H](CCNS(=O)(=O)N1CCC(c2cc(-c3cccc(Cl)c3Cl)nn2C)CC1)N=C(N)N`, the IC50 was 76 µM.

As for `CCCN(CCCNS(=O)(=O)N1CCC(c2cc(-c3cccc(Cl)c3Cl)nn2C)CC1)C(=N)N`, the IC50 is 32 µM.

Molecule `CN(CCCNS(=O)(=O)N1CCC(c2cc(-c3ccc(OCc4ccc(C(=O)O)o4)c(Cl)c3Cl)nn2C)CC1)C(=N)N` had an IC50 of 0.6 µM.

The molecule `Cn1nc(-c2cccc(Cl)c2Cl)cc1C1CCN(C(=O)NCCCCN=C(N)N)CC1` yielded an IC50 of more than 100 µM.

In turn, `Cn1nc(-c2cccc(Cl)c2Cl)cc1C1CCN(C(=O)NCCN=C(N)N)CC1` displayed an IC50 of more than 100 µM.

The molecule `N=C(N)N[C@@H](C(=O)NCC(=O)N1CCC(c2cc(-c3cccc(Cl)c3Cl)n[nH]2)CC1)C1CCCCC1` registered an IC50 of 6 µM.

`CNC(=O)[C@H](CCNC(=O)N1CCC(c2cc(-c3cccc(Cl)c3Cl)nn2C)CC1)N=C(N)N`: the IC50 was more than 100 µM.

Molecule `Cn1nc(-c2cccc(Cl)c2Cl)cc1C1CCN(S(=O)(=O)NCCCCN=C(N)N)CC1` had an IC50 of more than 100 µM.

`Cn1nc(-c2cccc(Cl)c2Cl)cc1C1CCN(C(=O)NCC[C@H](N=C(N)N)C(=O)N2CCCC2)CC1` registered an IC50 of 20 µM.

In the case of `CC(C)[C@@H](CCNC(=O)N1CCC(c2cc(-c3cccc(Cl)c3Cl)nn2C)CC1)N=C(N)N`, the IC50 is more than 100 µM.

Turning to `CC(C)N(CCCNC(=O)N1CCC(c2cc(-c3cccc(Cl)c3Cl)nn2C)CC1)C(=N)N`, the IC50 is more than 100 µM.

Regarding `CC(C)C[C@@H](NC(=N)N)C(=O)NCC(=O)N1CCC(c2cc(-c3ccc(OCc4ccc(C(=O)O)o4)c(Cl)c3Cl)nn2C)CC1`, the IC50 was 0.06 µM.

For the molecule `CCN(CC)C(=O)[C@H](CCNC(=O)N1CCC(c2cc(-c3cccc(Cl)c3Cl)nn2C)CC1)N=C(N)N`, the IC50 stood at 11 µM.

`CC(C)C[C@H](CCNC(=O)N1CCC(c2cc(-c3cccc(Cl)c3Cl)nn2C)CC1)N=C(N)N` showed an IC50 of 23 µM.

On to `CCCN(CCCNC(=O)N1CCC(c2cc(-c3cccc(Cl)c3Cl)nn2C)CC1)C(=N)N`, for which the IC50 is more than 100 µM.

Molecule `C[C@H](CCNS(=O)(=O)N1CCC(c2cc(-c3cccc(Cl)c3Cl)nn2C)CC1)N=C(N)N` returned an IC50 of 90 µM.

The molecule `CC(C)C[C@H](CCNS(=O)(=O)N1CCC(c2cc(-c3cccc(Cl)c3Cl)nn2C)CC1)N=C(N)N` registered an IC50 of 30 µM.

In turn, `CN(C)C(=O)[C@H](CCNC(=O)N1CCC(c2cc(-c3cccc(Cl)c3Cl)nn2C)CC1)N=C(N)N` had an IC50 of 7 µM.

Molecule `CC(C)[C@@H](CCNS(=O)(=O)N1CCC(c2cc(-c3cccc(Cl)c3Cl)nn2C)CC1)N=C(N)N` came in with an IC50 of more than 100 µM.

As to `CN(CCCNC(=O)N1CCC(c2cc(-c3cccc(Cl)c3Cl)nn2C)CC1)C(=N)N`, the IC50 was 16 µM.

`COC(=O)[C@H](CCNC(=O)N1CCC(c2cc(-c3cccc(Cl)c3Cl)nn2C)CC1)N=C(N)N` had an IC50 of more than 100 µM.

`Cn1nc(-c2cccc(Cl)c2Cl)cc1C1CCN(C(=O)NCC[C@H](N=C(N)N)C(=O)N2CCC3CCCCC3C2)CC1` (stereo partly drawn) gave an IC50 of more than 100 µM.

Consider `CC(C)[C@H](CCNC(=O)N1CCC(c2cc(-c3cccc(Cl)c3Cl)nn2C)CC1)N=C(N)N`, for which the IC50 was found to be 55 µM.

Take `Cn1nc(-c2cccc(Cl)c2Cl)cc1C1CCN(C(=O)NCC[C@H](N=C(N)N)C(=O)O)CC1`: the IC50 is more than 100 µM.

Turning to `CC(=O)N1CCN(C(=O)[C@H](CCNC(=O)N2CCC(c3cc(-c4cccc(Cl)c4Cl)nn3C)CC2)N=C(N)N)CC1`, the IC50 came out at 60 µM.
